# Measurements as given in PubChem BioAssay AID220 (DTP/NCI, 2004).
# Several values for one entry are separate records, joined by “and”; a condition that tells them apart may be missing. Equal values may be shown once. Results filed as inconclusive are left out.
# System: CD8F1 mice, subcutaneous mammary adenocarcinoma, T/C%
# Experiment: NCI In Vivo Anticancer Drug Screen. Data for tumor model Mammary Adenocarcinoma CD8F1 (subcutaneous) in CD8F1
# Details: higher = larger tumour
# Procedure: The antitumor activity of compounds was measured in mice bearing transplantable tumors. Survival or tumor size were measured and the results are expressed as the measurement made in the treated group (T) divided by the measurement made in the vehicle treated control group (C). The tumor model used in this assay is Mammary Adenocarcinoma CD8F1 (subcutaneous) in CD8F1
# [1] = endpoint: median tumor weight (est.), dose: 25.0 mg/kg/injection, schedule: Q07DX005 (ip), vehicle: suspension in saline
# [2] = endpoint: median tumor weight (est.), dose: 50.0 mg/kg/injection, schedule: Q07DX005 (ip), vehicle: suspension in saline
# [3] = endpoint: median tumor weight (est.), dose: 100.0 mg/kg/injection, schedule: Q07DX005 (ip), vehicle: suspension in saline
# [4] = endpoint: median tumor weight (est.), dose: 400.0 mg/kg/injection, schedule: Q07DX005 (ip), vehicle: suspension in saline
# [5] = endpoint: median tumor weight change, dose: 125.0 mg/kg/injection, schedule: Q01DX001 (ip), vehicle: suspension in saline
smiles,measurement,setting,value
Nc1ncnc2c1ncn2C1OC(CO)CC1O (configuration not stated),T/C,"endpoint: median tumor weight (est.), dose: 37.5 mg/kg/injection, schedule: Q07DX005 (ip), vehicle: Klucel (hydroxypropylcellulose) (HPC)",102 % of control
same,T/C,"endpoint: median tumor weight (est.), dose: 75.0 mg/kg/injection, schedule: Q07DX005 (ip), vehicle: Klucel (hydroxypropylcellulose) (HPC)",88 % of control
COc1cc([C@@H]2c3cc4c(c(O)c3C[C@H]3COC(=O)[C@@H]32)OCO4)cc(OC)c1OC,T/C,"endpoint: median tumor weight (est.), dose: 2.0 mg/kg/injection, schedule: Q07DX005 (ip), vehicle: saline",45 % of control
same,T/C,"endpoint: median tumor weight (est.), dose: 4.0 mg/kg/injection, schedule: Q07DX005 (ip), vehicle: saline",222 % of control
same,T/C,"endpoint: median tumor weight (est.), dose: 8.0 mg/kg/injection, schedule: Q07DX005 (ip), vehicle: saline",86 % of control
same,T/C,"endpoint: median tumor weight (est.), dose: 16.0 mg/kg/injection, schedule: Q07DX005 (ip), vehicle: saline",96 % of control
CC(=O)OCC1OC(n2ccc(N)nc2=O)C(OC(C)=O)C1OC(C)=O (configuration not stated),T/C,[1],159 % of control
same,T/C,[2],70 % of control
same,T/C,[3],87 % of control
same,T/C,"endpoint: median tumor weight (est.), dose: 200.0 mg/kg/injection, schedule: Q07DX005 (ip), vehicle: suspension in saline",88 % of control
same,T/C,[4],96 % of control
same,T/C,"endpoint: median tumor weight (est.), dose: 800.0 mg/kg/injection, schedule: Q07DX005 (ip), vehicle: suspension in saline",6 % of control
Nc1nc2c(ncn2C2OC(CO)C(O)C2O)c(=O)[nH]1.Nc1nc2c(ncn2C2OC(CO)C(O)C2O)c(=O)[nH]1.[NH2-].[NH2-].[Pt+2] (configuration not stated),T/C,"endpoint: median tumor weight (est.), dose: 12.5 mg/kg/injection, schedule: Q07DX005 (ip), vehicle: water",52 % of control
same,T/C,"endpoint: median tumor weight (est.), dose: 25.0 mg/kg/injection, schedule: Q07DX005 (ip), vehicle: water",61 % of control
same,T/C,"endpoint: median tumor weight (est.), dose: 50.0 mg/kg/injection, schedule: Q07DX005 (ip), vehicle: water",34 % of control
same,T/C,"endpoint: median tumor weight (est.), dose: 100.0 mg/kg/injection, schedule: Q07DX005 (ip), vehicle: water",51 % of control
same,T/C,"endpoint: median tumor weight (est.), dose: 200.0 mg/kg/injection, schedule: Q07DX005 (ip), vehicle: water",40 % of control
COC(=O)C[C@](O)(CCC(C)(C)O)C(=O)O[C@@H]1C(OC)=C[C@]23CCCN2CCc2cc4c(cc2[C@H]13)OCO4,T/C,"endpoint: median tumor weight change, dose: 1.25 mg/kg/injection, schedule: Q01DX001 (ip), vehicle: saline",80 % of control and 96 % of control
same,T/C,"endpoint: median tumor weight change, dose: 2.5 mg/kg/injection, schedule: Q01DX001 (ip), vehicle: saline",89 % of control and 94 % of control
same,T/C,"endpoint: median tumor weight change, dose: 10.0 mg/kg/injection, schedule: Q01DX001 (ip), vehicle: saline",68 % of control
CC(=O)OC(C)C1C2=C(C(=O)CC1(C)O)C(=O)c1c(ccc(-c3ccc4c(c3O)C(=O)C3=C(C4=O)C(C(C)OC(C)=O)C(C)(O)CC3=O)c1O)C2=O (configuration not stated),T/C,"endpoint: median tumor weight change, dose: 3.75 mg/kg/injection, schedule: Q01DX001 (ip), vehicle: saline with Tween-80",105 % of control
same,T/C,"endpoint: median tumor weight change, dose: 7.5 mg/kg/injection, schedule: Q01DX001 (ip), vehicle: saline with Tween-80",42 % of control
same,T/C,"endpoint: median tumor weight change, dose: 15.0 mg/kg/injection, schedule: Q01DX001 (ip), vehicle: saline with Tween-80",88 % of control
same,T/C,"endpoint: median tumor weight change, dose: 30.0 mg/kg/injection, schedule: Q01DX001 (ip), vehicle: saline with Tween-80",83 % of control
COc1cc(Cc2nccc3cc(OC)c(OC)cc23)c(C(C)=O)cc1OC,T/C,"endpoint: median tumor weight change, dose: 62.0 mg/kg/injection, schedule: Q01DX001 (ip), vehicle: saline",93 % of control
same,T/C,"endpoint: median tumor weight change, dose: 62.5 mg/kg/injection, schedule: Q01DX001 (ip), vehicle: saline",41 % of control
same,T/C,"endpoint: median tumor weight change, dose: 62.5 mg/kg/injection, schedule: Q01DX001 (ip), vehicle: suspension in saline",54 % of control
same,T/C,"endpoint: median tumor weight change, dose: 125.0 mg/kg/injection, schedule: Q01DX001 (ip), vehicle: saline",33 % of control and 35 % of control
same,T/C,[5],57 % of control
same,T/C,"endpoint: median tumor weight change, dose: 250.0 mg/kg/injection, schedule: Q01DX001 (ip), vehicle: saline",-6 % of control
C=C(OP(=O)(OC)OC)Sc1ccccc1C,T/C,"endpoint: median tumor weight change, dose: 0.38 mg/kg/injection, schedule: Q01DX001 (ip), vehicle: Klucel (hydroxypropylcellulose) (HPC)",80 % of control
same,T/C,"endpoint: median tumor weight change, dose: 0.75 mg/kg/injection, schedule: Q01DX001 (ip), vehicle: Klucel (hydroxypropylcellulose) (HPC)",96 % of control
same,T/C,"endpoint: median tumor weight change, dose: 1.5 mg/kg/injection, schedule: Q01DX001 (ip), vehicle: Klucel (hydroxypropylcellulose) (HPC)",88 % of control
COc1cccc2c1C(=O)c1c(O)c3c(c(O)c1C2=O)C[C@@](O)(C(O)CO)C[C@@H]3OC1CC(N(Cc2ccccc2)Cc2ccccc2)C(O)C(C)O1 (some centres not stated),T/C,"endpoint: median tumor weight change, dose: 62.0 mg/kg/injection, schedule: Q01DX001 (ip), vehicle: water",14 % of control
same,T/C,"endpoint: median tumor weight change, dose: 125.0 mg/kg/injection, schedule: Q01DX001 (ip), vehicle: water",-48 % of control
O=c1s[se]c2ccccc12,T/C,"endpoint: median tumor weight (est.), dose: 3.12 mg/kg/injection, schedule: Q07DX005 (ip), vehicle: saline with Tween-80",86 % of control
same,T/C,"endpoint: median tumor weight (est.), dose: 6.25 mg/kg/injection, schedule: Q07DX005 (ip), vehicle: saline with Tween-80",187 % of control
same,T/C,"endpoint: median tumor weight (est.), dose: 12.5 mg/kg/injection, schedule: Q07DX005 (ip), vehicle: saline with Tween-80",156 % of control
same,T/C,"endpoint: median tumor weight (est.), dose: 25.0 mg/kg/injection, schedule: Q07DX005 (ip), vehicle: saline with Tween-80",82 % of control
same,T/C,"endpoint: median tumor weight (est.), dose: 50.0 mg/kg/injection, schedule: Q07DX005 (ip), vehicle: saline with Tween-80",81 % of control
O=C(CCCN1CCC(O)(c2cccc(C(F)(F)F)c2)CC1)c1ccc(F)cc1,T/C,"endpoint: median tumor weight (est.), dose: 3.12 mg/kg/injection, schedule: Q07DX005 (ip), vehicle: Klucel (hydroxypropylcellulose) (HPC)",116 % of control and 118 % of control
same,T/C,"endpoint: median tumor weight (est.), dose: 50.0 mg/kg/injection, schedule: Q07DX005 (ip), vehicle: Klucel (hydroxypropylcellulose) (HPC)",55 % of control and 62 % of control
N=C(N)SCc1cccc2c(=O)cc(-c3ccccc3)oc12,T/C,[5],151 % of control
same,T/C,"endpoint: median tumor weight change, dose: 250.0 mg/kg/injection, schedule: Q01DX001 (ip), vehicle: suspension in saline",151 % of control
same,T/C,"endpoint: median tumor weight change, dose: 500.0 mg/kg/injection, schedule: Q01DX001 (ip), vehicle: suspension in saline",106 % of control
same,T/C,"endpoint: median tumor weight change, dose: 1000.0 mg/kg/injection, schedule: Q01DX001 (ip), vehicle: suspension in saline",123 % of control
C/C(=N\N=C(/[Se])N1CC2CCC(CC2)C1)c1ccccn1,T/C,"endpoint: median tumor weight change, dose: 8.0 mg/kg/injection, schedule: Q01DX001 (ip), vehicle: Klucel (hydroxypropylcellulose) (HPC)",86 % of control
same,T/C,"endpoint: median tumor weight change, dose: 15.62 mg/kg/injection, schedule: Q01DX001 (ip), vehicle: Klucel (hydroxypropylcellulose) (HPC)",114 % of control
same,T/C,"endpoint: median tumor weight change, dose: 15.62 mg/kg/injection, schedule: Q01DX001 (ip), vehicle: saline with Tween-80",109 % of control
same,T/C,"endpoint: median tumor weight change, dose: 16.0 mg/kg/injection, schedule: Q01DX001 (ip), vehicle: Klucel (hydroxypropylcellulose) (HPC)",27 % of control
same,T/C,"endpoint: median tumor weight change, dose: 31.0 mg/kg/injection, schedule: Q01DX001 (ip), vehicle: Klucel (hydroxypropylcellulose) (HPC)",55 % of control
same,T/C,"endpoint: median tumor weight change, dose: 31.25 mg/kg/injection, schedule: Q01DX001 (ip), vehicle: saline with Tween-80",87 % of control
same,T/C,"endpoint: median tumor weight change, dose: 62.0 mg/kg/injection, schedule: Q01DX001 (ip), vehicle: Klucel (hydroxypropylcellulose) (HPC)",18 % of control
same,T/C,"endpoint: median tumor weight change, dose: 62.5 mg/kg/injection, schedule: Q01DX001 (ip), vehicle: Klucel (hydroxypropylcellulose) (HPC)",122 % of control
same,T/C,"endpoint: median tumor weight change, dose: 62.5 mg/kg/injection, schedule: Q01DX001 (ip), vehicle: saline with Tween-80",65 % of control
same,T/C,"endpoint: median tumor weight change, dose: 125.0 mg/kg/injection, schedule: Q01DX001 (ip), vehicle: Klucel (hydroxypropylcellulose) (HPC)",111 % of control
same,T/C,"endpoint: median tumor weight change, dose: 125.0 mg/kg/injection, schedule: Q01DX001 (ip), vehicle: saline with Tween-80",59 % of control
CCOC(=O)c1c[nH]c2oc(/C=N/N3CC(CN4CCOCC4)OC3=O)cc2c1=O (configuration not stated),T/C,"endpoint: median tumor weight (est.), dose: 12.5 mg/kg/injection, schedule: Q07DX005 (ip), vehicle: suspension in saline",107 % of control
same,T/C,[1],87 % of control
same,T/C,[2],97 % of control
same,T/C,[3],155 % of control
same,T/C,[4],94 % of control
O=[Te]=O,T/C,"endpoint: median tumor weight change, dose: 6.25 mg/kg/injection, schedule: Q01DX001 (ip), vehicle: suspension in saline",73 % of control
same,T/C,"endpoint: median tumor weight change, dose: 12.5 mg/kg/injection, schedule: Q01DX001 (ip), vehicle: suspension in saline",83 % of control
same,T/C,"endpoint: median tumor weight change, dose: 25.0 mg/kg/injection, schedule: Q01DX001 (ip), vehicle: suspension in saline",61 % of control
same,T/C,"endpoint: median tumor weight change, dose: 50.0 mg/kg/injection, schedule: Q01DX001 (ip), vehicle: suspension in saline",94 % of control
same,T/C,"endpoint: median tumor weight change, dose: 100.0 mg/kg/injection, schedule: Q01DX001 (ip), vehicle: suspension in saline",106 % of control
